≈ marks a conversion by molar mass, not a printed value. Where “and” joins values, the source holds several entries; their conditions need not be identical. Equal entries are not always repeated. Where two headings read alike, the source gives them in different places.
What was measured:
Str. pyogenes A9604 = assay: Antibiotic activity in nutrient broth (MIC), Str. pyogenes; format: cell-based; details: Streptococcus pyogenes, 45% AAB + 5% serum + 50% broth, 10^-3 dilution of overnight culture, Ex. 1/Ex. 2 figures recalculated on penicillin content
Text: (§1) ANTIBIOTIC ACTIVITY IN NUTRIENT BROTH
(§2) *45% AAB + 5% serum + 50% broth
(§3) **Dilution of overnight broth culture
(§4) +These figures were […] on the basis that there was only 60.61%
(§5) amoxicillin in the sample; in other words, the numerical values were
(§6) lowered, i.e. improved.
(§7) ----//These figures were recalculated on the basis that there was only

Ent. cloacae A9659 = assay: Antibiotic activity in nutrient broth (MIC), Ent. cloacae A9659; format: cell-based; details: Enterobacter cloacae, 10^-4 dilution, Ex. 1/Ex. 2 figures recalculated on penicillin content
Str. pneumoniae A9585 = assay: Antibiotic activity in nutrient broth (MIC), Str. pneumoniae; format: cell-based; details: Streptococcus pneumoniae, 45% AAB + 5% serum + 50% broth, 10^-3 dilution of overnight culture, Ex. 1/Ex. 2 figures recalculated on penicillin content
Text: as §1, §2, §3, §4, §5, §6, §7

E. coli Juhl A15119 = assay: Antibiotic activity in nutrient broth (MIC), E. coli Juhl; format: cell-based; details: Escherichia coli, JUHLA15119, 10^-4 dilution, Ex. 1/Ex. 2 figures recalculated on penicillin content
Text: as §1, §3, §4, §5, §6, §7

Ent. cloacae A9657 = assay: Antibiotic activity in nutrient broth (MIC), Ent. cloacae A9657; format: cell-based; details: Enterobacter cloacae, 10^-4 dilution, Ex. 1/Ex. 2 figures recalculated on penicillin content
Sal. enteritidis A9531 = assay: Antibiotic activity in nutrient broth (MIC), Sal. enteritidis; format: cell-based; details: Salmonella enterica, 10^-4 dilution, Ex. 1/Ex. 2 figures recalculated on penicillin content
Text: as §1, §3, §4, §5, §6, §7

E. coli A9675 = assay: Antibiotic activity in nutrient broth (MIC), E. coli A9675; format: cell-based; details: Escherichia coli, 10^-4 dilution, Ex. 1/Ex. 2 figures recalculated on penicillin content
Text: as §1, §3, §4, §5, §6, §7

Pr. mirabilis A9900 = assay: Antibiotic activity in nutrient broth (MIC), Pr. mirabilis; format: cell-based; details: Proteus mirabilis, 10^-4 dilution, Ex. 1/Ex. 2 figures recalculated on penicillin content
Text: as §1, §3, §4, §5, §6, §7

Ser. marcescens A20019 = assay: Antibiotic activity in nutrient broth (MIC), Ser. marcescens; format: cell-based; details: Serratia marcescens, 10^-4 dilution, Ex. 1/Ex. 2 figures recalculated on penicillin content
Text: as §1, §3, §4, §5, §6, §7

S. aureus Smith A9537 = assay: Antibiotic activity in nutrient broth (MIC), S. aureus Smith; format: cell-based; details: Staphylococcus aureus, 10^-4 dilution, Ex. 1/Ex. 2 figures recalculated on penicillin content
Text: as §1, §3, §4, §5, §6, §7

K. pneumoniae A9977 = assay: Antibiotic activity in nutrient broth (MIC), K. pneumoniae A9977; format: cell-based; details: Klebsiella pneumoniae, 10^-4 dilution, Ex. 1/Ex. 2 figures recalculated on penicillin content
Text: as §1, §3, §4, §5, §6, §7

[1] = Mouse blood levels after oral administration; details: 100 mg./kg., tested twice, average of 6 mice each
[2] = Mouse blood levels after intramuscular administration; details: 10 mg./kg., average of six animals, unit assumed
[3] = Hydrolysis to parent penicillin (paper strip and liquid chromatography); format: in vitro ADME; details: 0.2 mg./ml.; pH 6.5-7.0 buffer or serum; room temperature and 37° C.
[4] = Stability of reconstituted aqueous solution; format: physicochemical; details: 10 to 20 mg./ml. of activity
[5] = Oral and intramuscular rat blood levels; format: in vivo
Hygroscopicity = format: physicochemical; details: solid product
Pr. morganii A15153 = assay: Antibiotic activity in nutrient broth (MIC), Pr. morganii; format: cell-based; details: Morganella morganii, 10^-4 dilution, Ex. 1/Ex. 2 figures recalculated on penicillin content
Ps. aeruginosa A9843A = assay: Antibiotic activity in nutrient broth (MIC), Ps. aeruginosa; format: cell-based; details: Pseudomonas aeruginosa
Bioassay = details: theory 730 (Ex. 1) / 596 (Ex. 2) mcg./mg.
[6] = tested on: S. aureus Meth.-res. A15097; assay: Antibiotic activity in nutrient broth (MIC), S. aureus Meth.-res.; format: cell-based; details: Staphylococcus aureus
[7] = In vitro antibacterial spectrum / activity; format: cell-based; details: vs amoxicillin (Ex. 1) or ampicillin (Ex. 2)
S. aureus bx 1633 A9606 = assay: Antibiotic activity in nutrient broth (MIC), S. aureus bx 1633; format: cell-based; details: Ex. 1/Ex. 2 figures recalculated on penicillin content
K. pneumoniae A15130 = assay: Antibiotic activity in nutrient broth (MIC), K. pneumoniae A15130; format: cell-based; details: Klebsiella pneumoniae
Ent. cloacae A9656 = assay: Antibiotic activity in nutrient broth (MIC), Ent. cloacae A9656; format: cell-based; details: Enterobacter cloacae, 10^-4 dilution, Ex. 1/Ex. 2 figures recalculated on penicillin content
[8] = SMITHA9537, nutrient broth, no serum
[9] = 3.5 hours, in µg/mL (unit assumed)

Compound	MIC (Str. pyogenes A9604) [µg/mL]	MIC (Ent. cloacae A9659) [µg/mL]	MIC (Str. pneumoniae A9585) [µg/mL]	MIC (E. coli Juhl A15119) [µg/mL]	MIC (Ent. cloacae A9657) [µg/mL]	MIC (Sal. enteritidis A9531) [µg/mL]	MIC (E. coli A9675) [µg/mL]	MIC (Pr. mirabilis A9900) [µg/mL]	MIC (Ser. marcescens A20019) [µg/mL]	MIC (S. aureus Smith A9537; SMITHA9537, +50% serum) [µg/mL]	MIC (S. aureus Smith A9537; [8]) [µg/mL]	MIC (K. pneumoniae A9977) [µg/mL]	Blood level [1, 9]	Mouse blood level ([2]; 0.25 hours) [µg/mL]	Mouse blood level ([2]; 0.5 hours) [µg/mL]	Mouse blood level ([2]; 1 hour) [µg/mL]	Mouse blood level ([2]; 1.5 hours) [µg/mL]	further results
CC1(C)S[C@@H]2[C@H](NC(=O)[C@H](N)c3ccccc3)C(=O)N2[C@H]1C(=O)O [Ampicillin, D(-)-α-aminobenzyl-penicillin, reference compound]	0.008	63 (≈ 180 µM)	0.008	2 (≈ 5.72 µM)	32 (≈ 91.6 µM)	0.013 (≈ 0.0372 µM)	16 (≈ 45.8 µM)	0.25 (≈ 0.715 µM)	32 (≈ 91.6 µM)	0.13 (≈ 0.372 µM)	0.13 (≈ 0.372 µM)	0.25 (≈ 0.715 µM)	–	–	–	–	–	–
CC1(C)S[C@@H]2[C@H](NC(=O)[C@H](N)c3ccc(O)cc3)C(=O)N2[C@H]1C(=O)O [Amoxicillin, D(-)-α-amino-p-hydroxybenzylpenicillin, reference compound]	≤ 0.002	–	≤ 0.002	0.5 (≈ 1.37 µM)	63 (≈ 172 µM)	0.008 (≈ 0.0219 µM)	8 (≈ 21.9 µM)	≤ 0.016	16 (≈ 43.8 µM)	0.008 (≈ 0.0219 µM)	0.008 (≈ 0.0219 µM)	–	1.5 and 0.8	7.7	4.3	1.9	0.6	Blood level ([1]; 0.5 hours, in µg/mL (unit assumed)): 7.9 and 13.9; Blood level ([1]; 1 hour, in µg/mL (unit assumed)): 7.4 and 12.4; Blood level ([1]; 2 hours, in µg/mL (unit assumed)): 4.6 and 5.8
CC1(C)S[C@@H]2[C@H](N3C(=O)[C@@H](c4ccc(O)cc4)NC3c3ccc(S(=O)(=O)O)o3)C(=O)N2[C@H]1C(=O)O (mixture of isomers) [Example 1, Disodium 6-[D(-)2-(±)5-Sulfo-2-furyl-5-oxo-4-p-hydroxyphenyl-1-imidazolidinyl]penicillanate]	0.0005	63	0.0005	1	63	0.13	16	0.25	32	0.13	0.06	0.13	1.1	7.3	5.4	2.1	1.1	hydrolysis in water to parent penicillin [3]: rapidly hydrolyzes in water to amoxicillin; Blood level ([1]; 0.5 hours, listed as Ex. 1, in µg/mL (unit assumed)): 6.3 and 9.5; Blood level ([1]; 1 hour, listed as Ex. 1, in µg/mL (unit assumed)): 7.2 and 10.4; Blood level ([1]; 2 hours, listed as Ex. 1, in µg/mL (unit assumed)): 3.9 and 4.9; stable at room temperature (diluted solution) [4]: at least 24 hours; Intramuscular rat blood levels compared with parent penicillin ([5]; intramuscular): substantially equal to those of amoxicillin; Oral rat blood levels compared with parent penicillin ([5]; oral): substantially equal to those of amoxicillin; hygroscopicity (Hygroscopicity): nonhygroscopic; MIC (Pr. morganii A15153): > 125 µg/mL; MIC (Ps. aeruginosa A9843A): > 125 µg/mL; Bioassay (Bioassay): 696 µg/mg; MIC [6]: > 125 µg/mL; in vitro antibacterial spectrum compared with parent penicillin [7]: substantially equivalent to that of amoxicillin; MIC (S. aureus bx 1633 A9606; 10^-2 dilution): > 125 µg/mL; MIC (S. aureus bx 1633 A9606; Staphylococcus aureus, BX1633A9606, 10^-3 dilution, read-out: MIC): > 125 µg/mL; MIC (K. pneumoniae A15130): 125 µg/mL; MIC (Ent. cloacae A9656): > 125 µg/mL
